What was measured:
[1] = Clearance in rat plasma at 0.5 mg/kg, iv or 1 mg/kg, po; format: ADME, organism-based
[2] = Unbound clearance in dog at 0.5 mg/kg, iv or 1 mg/kg, po; format: ADME, organism-based, Canis lupus familiaris; conditions: in vivo
[3] = biological target: Tyrosine-protein kinase ABL2 (Homo sapiens, UniProt P42684); experiment: Inhibition of recombinant full length human C-terminal His-tagged ABL2F cytoplasmic domain expressed in baculovirus expression system using tyrosine-2 peptide as substrate incubated for 60 mins in presence of ATP by Z'-LYTE assay
[4] = biological target: Tyrosine-protein kinase ABL1 (Homo sapiens, UniProt P00519, G250E); experiment: Inhibition of recombinant full length human His-tagged ABL1 G250E mutant cytoplasmic domain expressed in baculovirus expression system using tyrosine-2 peptide as substrate incubated for 60 mins in presence of ATP by Z'-LYTE assay
[5] = biological target: Thyrotropin-releasing hormone receptor (Rattus norvegicus) (UniProt Q01717); experiment: Inhibition of rat TRH receptor at 10 uM relative to control
[6] = biological target: Substance-P receptor (Homo sapiens) (UniProt P25103); experiment: Displacement of [3H]substance P from recombinant full length human NK1R expressed in CHO cells at 10 uM after 90 mins by radiometric scintillation analysis relative to control; format: cell-based
[7] = biological target: Melanin-concentrating hormone receptor 1 (Homo sapiens) (UniProt Q99705); experiment: Displacement of [125I]Tyr-S36057 from full length human recombinant SLC1 receptor expressed in CHO-K1 cells at 10 uM measured after 120 mins by radiometric scintillation analysis relative to control; format: cell-based
[8] = biological target: D(1A) dopamine receptor (Homo sapiens) (UniProt P21728); experiment: Displacement of [3H]SCH-23390 from recombinant full length human recombinant dopamine D1 receptor expressed in CHO cells at 10 uM measured after 120 mins by radiometric scintillation analysis relative to control; format: cell-based
[9] = biological target: Cannabinoid receptor 1 (Homo sapiens) (UniProt P21554); experiment: Inhibition of human CB1 receptor at 10 uM relative to control
[10] = biological target: Adenosine receptor A1 (Homo sapiens) (UniProt P30542); experiment: Displacement of [3H]DPCPX from full length recombinant human A1AR expressed in CHO cell membranes at 10 uM measured after 90 mins by scintillation counting method relative to control
[11] = organism: Homo sapiens; experiment: Inhibition of recombinant human PKA expressed in Escherichia coli at 10 uM using peptide as substrate after 15 mins by radiometric scintillation analysis relative to control
[12] = biological target: Caspase-3 (Homo sapiens) (UniProt P42574); experiment: Inhibition of recombinant full-length human caspase 3 expressed in Escherichia coli at 10 uM using Ac-DEVD-AMC as substrate after 60 mins by spectrophotometric analysis relative to control
[13] = biological target: Cyclin-dependent kinase 5/CDK5 activator 1 (Homo sapiens, UniProt Q00535); experiment: Inhibition of recombinant full length human His-tagged CDK5/p35 expressed in baculovirus expression system using serine/threonine-12 peptide as substrate incubated for 60 mins in presence of ATP by Z'-LYTE assay
[14] = biological target: Dual specificity tyrosine-phosphorylation-regulated kinase 1B (Homo sapiens, UniProt Q9Y463); experiment: Inhibition of recombinant full length human GST-tagged DYRK1B expressed in baculovirus expression system using serine/threonine-18 peptide as substrate incubated for 60 mins in presence of ATP by Z'-LYTE assay
[15] = biological target: Epidermal growth factor receptor (Homo sapiens, UniProt P00533, L858R); experiment: Inhibition of human recombinant GST-tagged EGFR L858R mutant expressed in baculovirus expression system using tyrosine 4 peptide as substrate after 60 mins in presence of ATP FRET based Z'-LYTE assay
[16] = biological target: Fibroblast growth factor receptor 3 (Homo sapiens, UniProt P22607); experiment: Inhibition of recombinant His-tagged human FGFR3 (399 to 806 residues) cytoplasmic domain expressed in baculovirus expression system using Tyr 04 peptide as substrate after 1 hr in presence of ATP by Z'-LYTE assay
[17] = biological target: Serine/threonine-protein kinase mTOR (Homo sapiens, UniProt P42345); experiment: Inhibition of recombinant human GST-tagged mTOR catalytic domain (1360 to 2549 residues) expressed in baculovirus expression system using serine/threonine-11 peptide as substrate incubated for 60 mins in presence of ATP by Z'-LYTE assay
[18] = biological target: Interleukin-1 receptor-associated kinase 1 (Homo sapiens, UniProt P51617); experiment: Inhibition of recombinant human GST-tagged IRAK1 catalytic domain (194 to 712 residues) expressed in baculovirus expression system using Histone H3 (1-20) peptide as substrate incubated for 60 mins in presence of ATP by Adapta assay
[19] = biological target: Leukocyte tyrosine kinase receptor (Homo sapiens, UniProt P29376); experiment: Inhibition of recombinant human GST-tagged LTK (450 to 864 residues) cytoplasmic domain expressed in baculovirus expression system using tyrosine-6 peptide as substrate incubated for 60 mins in presence of ATP by Z'-LYTE assay
[20] = biological target: Tyrosine-protein kinase Lyn (Homo sapiens, UniProt P07948); experiment: Inhibition of recombinant full length human GST-tagged LYN-A expressed in insect cells using tyrosine-2 peptide as substrate incubated for 60 mins in presence of ATP by Z'-LYTE assay
[21] = biological target: Mitogen-activated protein kinase 10 (Homo sapiens, UniProt P53779); experiment: Inhibition of recombinant full length human GST-tagged JNK3 expressed in baculovirus expression system using serine/threonine-4 peptide as substrate incubated for 60 mins in presence of ATP by Z'-LYTE assay
[22] = biological target: Serine/threonine-protein kinase Nek9 (Homo sapiens, UniProt Q8TD19); experiment: Inhibition of recombinant human GST-tagged NEK9 catalytic domain (347 to 732 residues) expressed in baculovirus expression system using serine/threonine-7 peptide as substrate incubated for 60 mins in presence of ATP by Z'-LYTE assay
[23] = biological target: Phosphatidylinositol 4-kinase beta (Homo sapiens, UniProt Q9UBF8); experiment: Inhibition of recombinant full length human GST-tagged PI4KB expressed in baculovirus expression system using PI lipid as substrate incubated for 60 mins in presence of ATP by Adapta assay
[24] = biological target: Ribosomal protein S6 kinase alpha-2 (Homo sapiens, UniProt Q15349); experiment: Inhibition of recombinant full length human GST-tagged RPS6KA2 expressed in insect expression system using Ser/Thr 06 peptide as substrate incubated for 60 mins in presence of ATP by Z'-LYTE assay
[25] = biological target: Serine/threonine-protein kinase Sgk1 (Homo sapiens, UniProt O00141); experiment: Inhibition of recombinant human GST-tagged SGK1 catalytic domain (60 to 431 residues) expressed in baculovirus expression system using serine/threonine-6 peptide as substrate incubated for 60 mins in presence of ATP by Z'-LYTE assay
[26] = biological target: Serine/threonine-protein kinase 3 (Homo sapiens, UniProt Q13188); experiment: Inhibition of recombinant full length human GST-tagged MST2 expressed in baculovirus expression system using serine/threonine-7 peptide as substrate incubated for 60 mins in presence of ATP by Z'-LYTE assay
Chain of Serine/threonine-protein kinase 3 (Q13188 whole entry): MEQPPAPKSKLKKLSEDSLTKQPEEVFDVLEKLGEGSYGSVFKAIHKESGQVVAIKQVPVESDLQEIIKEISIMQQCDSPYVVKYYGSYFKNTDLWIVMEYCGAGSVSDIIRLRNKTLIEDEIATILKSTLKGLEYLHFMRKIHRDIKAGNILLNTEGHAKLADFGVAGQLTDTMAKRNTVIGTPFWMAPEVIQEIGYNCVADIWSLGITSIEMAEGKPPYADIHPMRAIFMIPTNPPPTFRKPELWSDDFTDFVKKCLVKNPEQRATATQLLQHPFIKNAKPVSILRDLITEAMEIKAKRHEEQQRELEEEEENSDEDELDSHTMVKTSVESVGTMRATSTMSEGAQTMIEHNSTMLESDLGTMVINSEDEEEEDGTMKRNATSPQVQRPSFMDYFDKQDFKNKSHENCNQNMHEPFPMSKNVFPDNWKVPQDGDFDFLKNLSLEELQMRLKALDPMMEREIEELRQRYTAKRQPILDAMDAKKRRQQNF

Chain of D(1A) dopamine receptor (Homo sapiens) (P21728 whole entry): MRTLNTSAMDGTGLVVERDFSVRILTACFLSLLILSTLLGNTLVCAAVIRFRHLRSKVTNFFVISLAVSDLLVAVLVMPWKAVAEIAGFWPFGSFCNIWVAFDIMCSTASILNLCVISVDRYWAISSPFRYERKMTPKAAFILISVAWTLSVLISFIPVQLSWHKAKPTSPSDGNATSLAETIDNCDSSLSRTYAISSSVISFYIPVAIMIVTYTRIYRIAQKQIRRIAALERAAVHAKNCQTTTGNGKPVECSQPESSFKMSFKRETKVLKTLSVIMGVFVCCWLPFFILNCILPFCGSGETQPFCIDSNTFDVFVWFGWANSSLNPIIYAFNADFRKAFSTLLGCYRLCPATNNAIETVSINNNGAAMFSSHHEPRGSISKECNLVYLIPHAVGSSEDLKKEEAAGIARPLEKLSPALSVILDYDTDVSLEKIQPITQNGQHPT
Chain of Mitogen-activated protein kinase 10 (P53779 whole entry, the tested form may be a part): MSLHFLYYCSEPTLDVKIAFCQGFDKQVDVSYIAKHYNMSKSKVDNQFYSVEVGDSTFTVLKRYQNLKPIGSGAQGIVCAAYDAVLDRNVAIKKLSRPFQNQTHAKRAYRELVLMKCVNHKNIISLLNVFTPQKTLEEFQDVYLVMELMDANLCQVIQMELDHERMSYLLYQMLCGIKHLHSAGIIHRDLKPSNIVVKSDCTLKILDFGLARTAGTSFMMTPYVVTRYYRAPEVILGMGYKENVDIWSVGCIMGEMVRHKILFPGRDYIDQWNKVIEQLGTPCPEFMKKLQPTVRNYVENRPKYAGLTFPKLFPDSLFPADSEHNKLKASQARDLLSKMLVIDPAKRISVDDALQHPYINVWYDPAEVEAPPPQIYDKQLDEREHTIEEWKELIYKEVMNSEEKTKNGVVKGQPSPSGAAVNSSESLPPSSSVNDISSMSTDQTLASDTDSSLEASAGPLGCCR
Chain of Interleukin-1 receptor-associated kinase 1 (P51617 whole entry, the tested form may be a part): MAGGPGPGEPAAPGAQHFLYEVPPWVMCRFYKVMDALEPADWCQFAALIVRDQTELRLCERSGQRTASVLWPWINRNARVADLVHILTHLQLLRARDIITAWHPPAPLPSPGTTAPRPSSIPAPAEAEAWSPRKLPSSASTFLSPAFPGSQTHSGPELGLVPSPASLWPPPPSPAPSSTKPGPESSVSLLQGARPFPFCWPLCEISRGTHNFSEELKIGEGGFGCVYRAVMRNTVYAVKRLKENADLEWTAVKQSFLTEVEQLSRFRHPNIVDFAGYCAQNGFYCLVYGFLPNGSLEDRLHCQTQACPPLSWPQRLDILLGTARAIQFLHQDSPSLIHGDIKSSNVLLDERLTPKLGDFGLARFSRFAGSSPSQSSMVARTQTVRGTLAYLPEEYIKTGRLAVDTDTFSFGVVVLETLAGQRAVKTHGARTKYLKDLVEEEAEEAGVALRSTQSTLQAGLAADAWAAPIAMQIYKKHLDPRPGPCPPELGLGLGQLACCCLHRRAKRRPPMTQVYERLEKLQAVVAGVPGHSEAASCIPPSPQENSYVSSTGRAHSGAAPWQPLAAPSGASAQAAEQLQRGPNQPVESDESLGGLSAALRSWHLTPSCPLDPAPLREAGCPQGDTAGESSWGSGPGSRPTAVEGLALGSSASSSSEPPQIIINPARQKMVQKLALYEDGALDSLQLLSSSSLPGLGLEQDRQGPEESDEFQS
Chain of Melanin-concentrating hormone receptor 1 (Homo sapiens) (Q99705 whole entry): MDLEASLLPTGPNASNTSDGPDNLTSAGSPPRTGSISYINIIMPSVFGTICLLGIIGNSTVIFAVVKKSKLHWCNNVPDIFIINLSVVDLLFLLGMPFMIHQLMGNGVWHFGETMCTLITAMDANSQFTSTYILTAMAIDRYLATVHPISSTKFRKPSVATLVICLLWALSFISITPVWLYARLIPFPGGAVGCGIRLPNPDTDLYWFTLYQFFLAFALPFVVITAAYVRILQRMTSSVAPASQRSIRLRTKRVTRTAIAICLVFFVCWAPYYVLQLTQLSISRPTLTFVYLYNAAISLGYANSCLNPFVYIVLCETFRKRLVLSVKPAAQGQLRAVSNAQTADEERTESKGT
Chain of Serine/threonine-protein kinase Nek9 (Q8TD19 whole entry, the tested form may be a part): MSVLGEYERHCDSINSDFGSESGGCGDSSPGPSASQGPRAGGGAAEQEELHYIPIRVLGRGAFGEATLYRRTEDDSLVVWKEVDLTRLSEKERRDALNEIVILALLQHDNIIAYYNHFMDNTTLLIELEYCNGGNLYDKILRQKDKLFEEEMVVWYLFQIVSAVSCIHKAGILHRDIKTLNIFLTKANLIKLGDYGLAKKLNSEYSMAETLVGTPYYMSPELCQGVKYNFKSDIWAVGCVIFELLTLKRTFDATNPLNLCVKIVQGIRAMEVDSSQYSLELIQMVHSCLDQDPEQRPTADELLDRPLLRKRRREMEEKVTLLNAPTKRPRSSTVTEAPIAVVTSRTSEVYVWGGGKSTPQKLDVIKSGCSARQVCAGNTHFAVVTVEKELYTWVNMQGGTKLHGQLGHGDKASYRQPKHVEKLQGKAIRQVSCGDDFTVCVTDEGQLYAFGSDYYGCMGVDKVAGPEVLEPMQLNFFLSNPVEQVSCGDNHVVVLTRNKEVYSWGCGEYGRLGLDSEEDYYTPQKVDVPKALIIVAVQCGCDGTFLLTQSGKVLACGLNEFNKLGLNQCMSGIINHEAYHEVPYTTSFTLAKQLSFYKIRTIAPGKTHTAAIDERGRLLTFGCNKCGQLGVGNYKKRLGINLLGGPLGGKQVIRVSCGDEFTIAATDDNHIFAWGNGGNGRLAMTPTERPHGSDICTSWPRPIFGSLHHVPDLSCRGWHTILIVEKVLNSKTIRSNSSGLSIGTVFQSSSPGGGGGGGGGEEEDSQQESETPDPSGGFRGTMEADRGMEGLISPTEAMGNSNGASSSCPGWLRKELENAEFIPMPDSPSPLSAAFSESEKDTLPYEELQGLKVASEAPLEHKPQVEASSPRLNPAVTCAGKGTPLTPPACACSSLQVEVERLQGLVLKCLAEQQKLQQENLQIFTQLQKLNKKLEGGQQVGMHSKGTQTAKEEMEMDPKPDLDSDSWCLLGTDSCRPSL
Chain of Tyrosine-protein kinase ABL2 (P42684 whole entry, the tested form may be a part): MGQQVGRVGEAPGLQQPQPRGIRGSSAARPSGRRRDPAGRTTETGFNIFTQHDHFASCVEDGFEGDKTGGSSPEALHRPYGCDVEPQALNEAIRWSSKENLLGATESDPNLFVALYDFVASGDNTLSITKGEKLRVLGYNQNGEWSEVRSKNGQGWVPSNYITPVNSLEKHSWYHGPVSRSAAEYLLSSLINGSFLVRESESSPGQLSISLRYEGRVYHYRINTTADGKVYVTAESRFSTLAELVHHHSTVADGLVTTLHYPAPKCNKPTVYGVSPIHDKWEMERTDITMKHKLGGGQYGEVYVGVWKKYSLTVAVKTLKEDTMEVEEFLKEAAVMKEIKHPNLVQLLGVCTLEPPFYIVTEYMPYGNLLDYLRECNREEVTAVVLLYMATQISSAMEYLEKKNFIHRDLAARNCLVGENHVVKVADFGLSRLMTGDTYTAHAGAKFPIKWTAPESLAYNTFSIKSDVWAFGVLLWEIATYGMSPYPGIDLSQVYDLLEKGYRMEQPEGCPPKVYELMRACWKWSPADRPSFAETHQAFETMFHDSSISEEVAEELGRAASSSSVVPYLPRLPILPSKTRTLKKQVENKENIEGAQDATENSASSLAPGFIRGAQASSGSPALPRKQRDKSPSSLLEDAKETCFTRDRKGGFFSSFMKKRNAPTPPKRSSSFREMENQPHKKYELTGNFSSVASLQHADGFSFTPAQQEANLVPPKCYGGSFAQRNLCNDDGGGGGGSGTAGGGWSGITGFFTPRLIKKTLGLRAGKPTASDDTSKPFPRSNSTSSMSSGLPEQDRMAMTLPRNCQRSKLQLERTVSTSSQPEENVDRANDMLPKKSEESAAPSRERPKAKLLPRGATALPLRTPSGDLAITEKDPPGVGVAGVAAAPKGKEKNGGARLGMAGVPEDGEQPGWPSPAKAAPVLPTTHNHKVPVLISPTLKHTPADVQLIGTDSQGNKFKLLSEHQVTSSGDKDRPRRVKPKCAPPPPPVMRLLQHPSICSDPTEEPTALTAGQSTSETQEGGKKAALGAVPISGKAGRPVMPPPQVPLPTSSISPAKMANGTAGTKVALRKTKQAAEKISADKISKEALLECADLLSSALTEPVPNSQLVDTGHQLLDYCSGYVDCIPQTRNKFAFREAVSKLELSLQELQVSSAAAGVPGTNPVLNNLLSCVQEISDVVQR
Chain of Thyrotropin-releasing hormone receptor (Rattus norvegicus) (Q01717 whole entry): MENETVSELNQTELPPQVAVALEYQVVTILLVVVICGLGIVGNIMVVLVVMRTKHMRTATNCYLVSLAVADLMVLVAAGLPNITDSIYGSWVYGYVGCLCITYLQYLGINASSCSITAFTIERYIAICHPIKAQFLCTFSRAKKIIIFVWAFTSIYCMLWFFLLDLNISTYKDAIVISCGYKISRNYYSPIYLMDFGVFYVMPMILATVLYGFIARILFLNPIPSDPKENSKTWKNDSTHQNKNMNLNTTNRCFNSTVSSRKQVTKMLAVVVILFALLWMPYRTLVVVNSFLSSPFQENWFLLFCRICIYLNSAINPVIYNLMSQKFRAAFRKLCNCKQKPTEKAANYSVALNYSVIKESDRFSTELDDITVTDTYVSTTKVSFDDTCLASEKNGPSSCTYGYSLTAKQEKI

Q: Which results are given for C[C@@H]1C[C@H]1C(=O)N1CCN(c2cnc(C#N)c(-c3cnn(C)c3)n2)C[C@H]1C?
A: clearance [1]: 28.5 mL/min/kg; CL free [2]: 37 mL/min/kg; IC50 [3]: > 100 µM; IC50 [4]: > 100 µM; inhibition [5]: 0%; inhibition [6]: -1%; inhibition [7]: -2%; inhibition [8]: 2%; inhibition [9]: -1%; inhibition [10]: 10%; inhibition [11]: -3%; inhibition [12]: 0%; IC50 [13]: > 100 µM; IC50 [14]: > 100 µM; IC50 [15]: > 100 µM; IC50 [16]: > 100 µM; IC50 [17]: > 100 µM; IC50 [18]: > 100 µM; IC50 [19]: > 100 µM; IC50 [20]: > 100 µM; IC50 [21]: > 100 µM; IC50 [22]: > 100 µM; IC50 [23]: > 100 µM; IC50 [24]: > 100 µM; IC50 [25]: > 100 µM; IC50 [26]: > 100 µM

From ChEMBL document CHEMBL4602617, “Discovery and optimization of heteroaryl piperazines as potent and selective PI3Kδ inhibitors” (Bioorg Med Chem Lett, 2020)
